Laboratory results: patent publication US20030064380A1, “Anergy-regulated molecules” (The Center For Blood Research, Inc., priority 2001, published 2003)

Test system: D5 Th1 T cell line
Experiment: nucleic acid expression profile of D5 Th1 T cell line stimulated with 500 nM ionomycin, 1 μM CsA plus ionomycin or 20 nM PMA plus ionomycin; 11K chip, first replicate
Format: cell-based, murine
Parameters: expression level of Msa.15983.0_f_at / expression level of Msa.1669.0_f_at / expression level of Msa.18713.0_g_at / expression level of D86609_s_at / expression level of TC19211_at / expression level of TC21156_at / expression level of TC24045_at / expression level of TC30384_g_at / expression level of TC3225_at / expression level of TC38978_at / expression level of TC39080_at / expression level of TC17495_at: unit not given here
Description: D5 or primary T cells from NFAT1−/− or wild type DO11.10 transgenic mice were stimulated for 2, 6 or 16 hours with 500 nM ionomycin, 20 nM PMA plus 500 nM ionomycin, or 1 μM CsA plus 500 nM ionomycin. Total RNA was isolated with an RNeasy kit (QIAGEN). Ten μg of total RNA was quantitatively amplified and biotin-labeled as described (Byrne et al., (2000) “Preparation of mRNA for Expression Monitoring” Current Protocols in Molecular Biology (John Wiley & Sons, Inc.) pp. 22.22.21-22.22.13). Hybridization to GeneChips® (Affymetrix) displaying probes for 11,000 mouse genes/ESTs was performed at 40° C. overnight in a mix that included 10 μg fragmented RNA, 6× SSPE, 0.005% Triton X-100 and 100 μg/ml herring sperm DNA in a total volume of 200 μl. Chips were washed, stained with SA-PE and read using an Affymetrix GeneChip® scanner and accompanying gene expression software. Labeled bacterial RNAs of known concentration were spiked into each chip hybridization mix to generate an internal standard curve, allowing normalization between chips and conversion of raw hybridization intensity values to mRNA frequency (mRNA molecules per million).
Nucleic acid expression profiles were obtained from a T cell line at multiple time points and in various T cell states. The D5 Th1 T cell line was stimulated in three different ways: 1) ionomycin alone (e.g., causing the regulatory factor NFAT to move from the cytoplasm to the nucleus); 2) ionomycin+PMA (e.g., causing both NFAT and the transcription factor AP-1 to enter the nucleus); 3) ionomycin +cyclosporin A (CsA) (e.g., preventing NFAT from entering the nucleus in response to ionomycin). […] Cells were stimulated for 0, 2, 6, and 16 hours. RNA was isolated and analyzed on a nucleic acid chip with probes that monitor the expression of 11,000 nucleic acids located at unique addresses. The experiment was done twice (i.e., with two replicates, Rep. 1 and Rep. 2). Nucleic acid expression at the 2, 6 and 16 hour timepoints was compared to nucleic acid expression at 0 hours.
The nucleic acid expression data was stored in a computer database. A database query was used to identify all nucleic acids that were deemed “increasing” or “decreasing” in response to ionomycin (relative to the 0 hour sample) in at least one timepoint in Rep. 1, and the nucleic acids were also deemed “increasing” or “decreasing” in response to ionomycin in Rep. 2.
To test the hypothesis that NFAT in the absence of AP-1 and NFKB induced a genetic program of anergy, genes induced in D5 T cells by ionomycin stimulation alone were evaluated (FIGS. 1, 2 and 6). Samples from D5 cells stimulated with ionomycin plus CsA, which blocks anergy induction, and ionomycin plus PMA, which pharmacologically mimic complete stimulation through the TCR and CD28 were included. RNA was prepared from unstimulated D5 T cells and from cells stimulated for 2, 6 or 16 h under these three conditions, and gene transcription profiles were evaluated using Affymetrix oligonucleotide arrays (FIG. 6A).

C[C@H](CCC(=O)O)C[C@H](C)C[C@H](C)C(=O)/C=C(\O)[C@H](C)C[C@H](C)C/C=C/[C@@H](C)[C@@H](O)[C@@H](C)[C@@H](O)C[C@@H]1CC[C@@](C)([C@H]2CC[C@@](C)([C@@H](C)O)O2)O1 [Ionomycin, ionomycin]
expression level of D86609_s_at (2 h): 48
expression level of ET63436_at (2 h): 149
expression level of MIP1-B_at (2 h): 265.5
expression level of Msa.11439.0_s_at (2 h): 37
expression level of Msa.15983.0_f_at (2 h): 40
expression level of Msa.1669.0_f_at (2 h): 33
expression level of Msa.18713.0_g_at (2 h): 63
expression level of Msa.21745.0_s_at (2 h): 9
expression level of TC3225_at (2 h): 41
expression level of TC14671_g_at (2 h): 15
expression level of TC16364_at (2 h): 38
expression level of TC16828_at (2 h): 13
expression level of TC17132_at (2 h): 41
expression level of TC17495_at (2 h): 10
expression level of TC17558_at (2 h): 28
expression level of TC18221_at (2 h): 6
expression level of TC19211_at (2 h): 21
expression level of TC21156_at (2 h): 34
expression level of TC23346_s_at (2 h): 8
expression level of TC23450_s_at (2 h): 20
expression level of TC24045_at (2 h): 26
expression level of TC24067_at (2 h): 8
expression level of TC25965_at (2 h): 19
expression level of TC27326_g_at (2 h): 40
expression level of TC29889_at (2 h): 17
expression level of TC30384_g_at (2 h): 77
expression level of TC30935_at (2 h): 30
expression level of TC30992_s_at (2 h): 14
expression level of TC31681_at (2 h): 52
expression level of TC33206_at (2 h): 20
expression level of TC33833_at (2 h): 19
expression level of TC34186_at (2 h): 19
expression level of TC36089_at (2 h): 145
expression level of TC36583_at (2 h): 26
expression level of TC37631_at (2 h): 38
expression level of TC38094_at (2 h): 13
expression level of TC38978_at (2 h): 9
expression level of TC39012_at (2 h): 47
expression level of TC39080_at (2 h): 7
expression level of TC39762_at (2 h): 17
expression level of TC40487_g_at (2 h): 14
expression level of TC41014_at (2 h): 9
expression level of U44731_s_at (2 h): 80
expression level of X67914_s_at (2 h): 59
expression level of Z31202_s_at (2 h): 17
expression level of aa144045_s_at (2 h): 46
expression level of aa174748_at (2 h): 55
expression level of c81206_rc_at (2 h): 23
expression level of k00083_s_at (2 h): 54
expression level of x12531_s_at (2 h): 81
expression level of D86609_s_at (6 h): 21
expression level of ET63436_at (6 h): 82
expression level of MIP1-B_at (6 h): 102
expression level of Msa.11439.0_s_at (6 h): 31
expression level of Msa.15983.0_f_at (6 h): 33
expression level of Msa.1669.0_f_at (6 h): 38
expression level of Msa.18713.0_g_at (6 h): 35
expression level of Msa.21745.0_s_at (6 h): 6
expression level of TC3225_at (6 h): 44
expression level of TC14671_g_at (6 h): 19
expression level of TC16364_at (6 h): 42
expression level of TC16828_at (6 h): 48
expression level of TC17132_at (6 h): 54
expression level of TC17495_at (6 h): 9
expression level of TC17558_at (6 h): 26
expression level of TC18221_at (6 h): 8
expression level of TC19211_at (6 h): 17
expression level of TC21156_at (6 h): 33
expression level of TC23346_s_at (6 h): 11
expression level of TC23450_s_at (6 h): 12
expression level of TC24045_at (6 h): 21
expression level of TC24067_at (6 h): 23
expression level of TC25965_at (6 h): 18
expression level of TC27326_g_at (6 h): 33
expression level of TC29889_at (6 h): 15
expression level of TC30384_g_at (6 h): 73
expression level of TC30935_at (6 h): 27
expression level of TC30992_s_at (6 h): 4
expression level of TC31681_at (6 h): 28
expression level of TC33206_at (6 h): 8
expression level of TC33833_at (6 h): 8
expression level of TC34186_at (6 h): 26
expression level of TC36089_at (6 h): 122
expression level of TC36583_at (6 h): 20
expression level of TC37631_at (6 h): 27
expression level of TC38094_at (6 h): 7
expression level of TC38978_at (6 h): 9
expression level of TC39012_at (6 h): 45
expression level of TC39080_at (6 h): 14
expression level of TC39762_at (6 h): 41
expression level of TC40487_g_at (6 h): 12
expression level of TC41014_at (6 h): 15
expression level of U44731_s_at (6 h): 26
expression level of X67914_s_at (6 h): 62
expression level of Z31202_s_at (6 h): 30
expression level of aa144045_s_at (6 h): 39
expression level of aa174748_at (6 h): 23
expression level of c81206_rc_at (6 h): 16
expression level of k00083_s_at (6 h): 32
expression level of x12531_s_at (6 h): 34
expression level of D86609_s_at (16 h): 20
expression level of ET63436_at (16 h): 86
expression level of MIP1-B_at (16 h): 119
expression level of Msa.11439.0_s_at (16 h): 34
expression level of Msa.15983.0_f_at (16 h): 17
expression level of Msa.1669.0_f_at (16 h): 35
expression level of Msa.18713.0_g_at (16 h): 28
expression level of Msa.21745.0_s_at (16 h): 6
expression level of TC3225_at (16 h): 23
expression level of TC14671_g_at (16 h): 13
expression level of TC16364_at (16 h): 34
expression level of TC16828_at (16 h): 30
expression level of TC17132_at (16 h): 32
expression level of TC17495_at (16 h): 12
expression level of TC17558_at (16 h): 23
expression level of TC18221_at (16 h): 11
expression level of TC19211_at (16 h): 12
expression level of TC21156_at (16 h): 16
expression level of TC23346_s_at (16 h): 13
expression level of TC23450_s_at (16 h): 13
expression level of TC24045_at (16 h): 15
expression level of TC24067_at (16 h): 15
expression level of TC25965_at (16 h): 16
expression level of TC27326_g_at (16 h): 29
expression level of TC29889_at (16 h): 11
expression level of TC30384_g_at (16 h): 57
expression level of TC30935_at (16 h): 22
expression level of TC30992_s_at (16 h): 6
expression level of TC31681_at (16 h): 18
expression level of TC33206_at (16 h): 6
expression level of TC33833_at (16 h): 6
expression level of TC34186_at (16 h): 13
expression level of TC36089_at (16 h): 75
expression level of TC36583_at (16 h): 18
expression level of TC37631_at (16 h): 26
expression level of TC38094_at (16 h): 7
expression level of TC38978_at (16 h): 12
expression level of TC39012_at (16 h): 35
expression level of TC39080_at (16 h): 14
expression level of TC39762_at (16 h): 31
expression level of TC40487_g_at (16 h): 8
expression level of TC41014_at (16 h): 12
expression level of U44731_s_at (16 h): 17
expression level of X67914_s_at (16 h): 51
expression level of Z31202_s_at (16 h): 22
expression level of aa144045_s_at (16 h): 33
expression level of aa174748_at (16 h): 22
expression level of c81206_rc_at (16 h): 15
expression level of k00083_s_at (16 h): 35
expression level of x12531_s_at (16 h): 97
